Measured values: patent US20150284375A1 (AJINOMOTO CO., INC., priority 2012, published 2015)

Target: T1, human TRPA1 (Homo sapiens, UniProt O75762)
T1 construct: expressed in transfected cells; host or cells: Human embryonic kidney-derived 293T cells, transiently transfected with the pcDNA3.1/zeo(+) human TRPA1 plasmid
Experiment: Measurement of TRPA1 antagonist activity (intracellular calcium increase, FLIPR, allylisothiocyanate stimulation)
Type: cell-based
Conditions: allylisothiocyanate 20 μM stimulation, FLIPR calcium assay; read-out: antagonism hTRPA1
Procedure, shortened: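 IC50 derives from a sigmoid fit of inhibition of the 5-min FLIPR fluorescence change evoked by 20 μM allylisothiocyanate, normalized between agonist and buffer responses. Test substance, diluted in HBSS/20 mM HEPES pH 7.2 plus 0.1% BSA, was applied 10 min beforehand at room temperature to Calcium4-loaded 293T cells transiently expressing human TRPA1.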

T1 sequence (O75762 whole entry): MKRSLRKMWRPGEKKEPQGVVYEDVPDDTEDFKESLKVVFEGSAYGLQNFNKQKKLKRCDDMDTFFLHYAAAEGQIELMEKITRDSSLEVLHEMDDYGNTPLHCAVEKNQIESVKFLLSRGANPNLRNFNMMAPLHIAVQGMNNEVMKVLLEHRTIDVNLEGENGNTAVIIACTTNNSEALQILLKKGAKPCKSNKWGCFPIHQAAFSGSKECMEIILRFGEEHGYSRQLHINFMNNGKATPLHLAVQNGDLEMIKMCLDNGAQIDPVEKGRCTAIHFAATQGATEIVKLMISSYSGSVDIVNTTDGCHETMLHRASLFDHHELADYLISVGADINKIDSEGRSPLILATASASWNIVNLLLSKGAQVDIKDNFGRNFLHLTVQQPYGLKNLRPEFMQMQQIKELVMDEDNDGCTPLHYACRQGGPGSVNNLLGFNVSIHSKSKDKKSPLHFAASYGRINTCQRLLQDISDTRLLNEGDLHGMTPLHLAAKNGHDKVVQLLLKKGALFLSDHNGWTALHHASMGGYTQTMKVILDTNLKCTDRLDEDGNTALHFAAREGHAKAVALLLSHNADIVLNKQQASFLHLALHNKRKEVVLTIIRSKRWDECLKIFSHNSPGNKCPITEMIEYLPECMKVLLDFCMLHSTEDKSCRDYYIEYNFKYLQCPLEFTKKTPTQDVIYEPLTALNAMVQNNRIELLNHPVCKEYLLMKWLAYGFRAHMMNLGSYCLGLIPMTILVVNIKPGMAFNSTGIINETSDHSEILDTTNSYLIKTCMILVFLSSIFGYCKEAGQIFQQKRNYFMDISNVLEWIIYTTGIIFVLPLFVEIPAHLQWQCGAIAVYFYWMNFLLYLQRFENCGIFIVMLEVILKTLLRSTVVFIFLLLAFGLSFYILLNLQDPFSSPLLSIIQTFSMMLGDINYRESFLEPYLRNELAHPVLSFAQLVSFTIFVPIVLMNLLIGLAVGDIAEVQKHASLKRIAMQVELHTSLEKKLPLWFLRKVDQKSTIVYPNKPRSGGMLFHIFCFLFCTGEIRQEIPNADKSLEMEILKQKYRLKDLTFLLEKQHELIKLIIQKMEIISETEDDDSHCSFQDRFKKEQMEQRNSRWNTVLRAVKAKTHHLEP

IC50 [nM]	SMILES
170	Cc1ccc(S(=O)(=O)N2CCC[C@H]2C(=O)NCc2cccc(OCc3ccc(C(F)(F)F)cc3)c2)o1 [Example 203, (2S)-1-[(5-methyl-2-foryl)sulfonyl]-N-[[3-[[4-(trifluoromethyl)phenyl]methoxy]phenyl]methyl]pyrrolidine-2-carboxamide]
1000	Cc1sccc1S(=O)(=O)N1CCC[C@H]1C(=O)NCc1cccc(OCc2ccc(C(F)(F)F)cc2)c1 [Example 204, (2S)-1-[(2-methyl-3-thienyl)sulfonyl]-N-[[3-[[4-(trifluoromethyl)phenyl]methoxy]phenyl]methyl]pyrrolidine-2-carboxamide]
280	O=C(NCc1cccc(OCc2ccc(C(F)(F)F)cc2)c1)[C@@H]1CCCN1S(=O)(=O)c1cnn(C(F)F)c1 [Example 205, (2S)-1-[1-(difluoromethyl)pyrazol-4-yl]sulfonyl-N-[[3-[[4-(trifluoromethyl)phenyl]methoxy]phenyl]methyl]pyrrolidine-2-carboxamide]
290	O=C(NCc1cccc(OCc2ccc(C(F)(F)F)cc2)c1)[C@@H]1CCCN1S(=O)(=O)c1cnc2ccccc2c1 [Example 206, (2S)-1-(3-quinolylsulfonyl)-N-[[3-[[4-(trifluoromethyl)phenyl]methoxy]phenyl]methyl]pyrrolidine-2-carboxamide]
1200	O=C(NCc1cccc(OCc2ccc(C(F)(F)F)cc2)c1)[C@@H]1CCCN1S(=O)(=O)c1ccc2ncccc2c1 [Example 207, (2S)-1-(6-quinolylsulfonyl)-N-[[3-[[4-(trifluoromethyl)phenyl]methoxy]phenyl]methyl]pyrrolidine-2-carboxamide]
87	O=C(NCc1cccc(OCc2ccc(C(F)(F)F)cc2)c1)[C@@H]1CCCN1S(=O)(=O)c1cc2ccccc2s1 [Example 208, (2S)-1-(benzothiophen-2-ylsulfonyl)-N-[[3-[[4-(trifluoromethyl)phenyl]methoxy]phenyl]methyl]pyrrolidine-2-carboxamide]
2900	O=C(NCc1cccc(OCc2ccc(C(F)(F)F)cc2)c1)[C@@H]1CCCN1S(=O)(=O)c1ccc2ncsc2c1 [Example 209, (2S)-1-(1,3-benzothiazol-6-ylsulfonyl)-N-[[3-[[4-(trifluoromethyl)phenyl]methoxy]phenyl]methyl]pyrrolidine-2-carboxamide]
150	O=C(NCc1cccc(OCc2ccc(C(F)(F)F)cc2)c1)[C@@H]1CCCN1S(=O)(=O)c1ccc2nsnc2c1 [Example 210, (2S)-1-(2,1,3-benzothiadiazol-5-ylsulfonyl)-N-[[3-[[4-(trifluoromethyl)phenyl]methoxy]phenyl]methyl]pyrrolidine-2-carboxamide]
5500	O=C(NCc1cccc(OCc2ccc(C(F)(F)F)cc2)c1)[C@@H]1CCCN1S(=O)(=O)c1cccc2nsnc12 [Example 211, (2S)-1-(2,1,3-benzothiadiazol-4-ylsulfonyl)-N-[[3-[[4-(trifluoromethyl)phenyl]methoxy]phenyl]methyl]pyrrolidine-2-carboxamide]
6200	O=C(NCc1cccc(OCc2ccc(C(F)(F)F)cc2)c1)[C@@H]1CCCN1S(=O)(=O)c1cccc2nonc12 [Example 212, (2S)-1-(2,1,3-benzoxadiazol-4-ylsulfonyl)-N-[[3-[[4-(trifluoromethyl)phenyl]methoxy]phenyl]methyl]pyrrolidine-2-carboxamide]
350	O=C(NCc1cccc(OCc2ccc(C(F)(F)F)cc2)c1)[C@@H]1CC=CCN1S(=O)(=O)c1ccc(F)cc1 [Example 213, (2S)-1-(4-fluorophenyl)sulfonyl-N-[[3-[[4-(trifluoromethyl)phenyl]methoxy]phenyl]methyl]-3,6-dihydro-2H-pyridine-2-carboxamide]
120	O=C(NCc1cccc(OCc2ccc(C(F)(F)F)cc2)c1)[C@@H]1[C@H]2CC[C@H](C2)N1S(=O)(=O)c1ccc(F)cc1 [Example 214, (1S,2S,4R)-3-(4-fluorophenyl)sulfonyl-N-[[3-[[4-(trifluoromethyl)phenyl]methoxy]phenyl]methyl]-3-azabicyclo[2.2.1] heptane-2-carboxamide]
110	O=C(NCc1cccc(OCc2ccc(C(F)(F)F)cc2)c1)[C@@H]1[C@H]2CC[C@H](C2)N1S(=O)(=O)c1ccsc1 [Example 215, (1S,2S,4R)-3-(3-thienylsulfonyl)-N-[[3-[[4-(trifluoromethyl)phenyl]methoxy]phenyl]methyl]-3-azabicyclo[2.2.1]heptane-2-carboxamide]
60	O=C(NCc1cccc(OCc2ccc(C(F)(F)F)cc2)c1)[C@@H]1CCCN1S(=O)(=O)c1ccncc1 [Example 216, (2S)-1-(4-pyridylsulfonyl)-N-[[3-[[4-(trifluoromethyl)phenyl]methoxy]phenyl]methyl]pyrrolidine-2-carboxamide]
940	O=C(NCc1cccc(OCc2ccc(C(F)(F)F)cc2)c1)[C@@H]1CCCN1S(=O)(=O)c1cncs1 [Example 217, (2S)-1-thiazol-5-ylsulfonyl-N-[[3-[[4-(trifluoromethyl)phenyl]methoxy]phenyl]methyl]pyrrolidine-2-carboxamide]
830	O=C(NCc1cccc(OCc2ccc(C(F)(F)F)cc2)c1)[C@@H]1CCCN1S(=O)(=O)c1cscn1 [Example 218, (2S)-1-thiazol-4-ylsulfonyl-N-[[3-[[4-(trifluoromethyl)phenyl]methoxy]phenyl]methyl]pyrrolidine-2-carboxamide]
120	O=C(NCc1cccc(OCc2ccc(C(F)(F)F)cc2)c1)[C@@H]1CCCN1S(=O)(=O)c1nc2ccccc2s1 [Example 219, (2S)-1-(1,3-benzothiazol-2-ylsulfonyl)-N-[[3-[[4-(trifluoromethyl)phenyl]methoxy]phenyl]methyl]pyrrolidine-2-carboxamide]
190	O=C(NCc1cccc(OCc2ccc(C(F)(F)F)cc2)c1)[C@@H]1CCCN1S(=O)(=O)n1ccnc1 [Example 220, (2S)-1-imidazol-1-ylsulfonyl-N-[[3-[[4-(trifluoromethyl)phenyl]methoxy]phenyl]methyl]pyrrolidine-2-carboxamide]
